Values joined by “and” are separate entries in the source; they are usually repeats but may differ in a detail not shown here. Identical values can stand only once. “Also recorded” adds a separate entry of the source. Like-named read-outs stand apart in the source and are kept apart here. Where a SMILES comes first, the peptide text is derived from it. The star is where a group is joined. Biotin = O=C1N[C@H]2[C@H](CS[C@H]2CCCCC(=O)*)N1

Series [1] in a line: Filtration test (0.2 μm filter). It counts as physicochemical. Particulars: for effect on the presence of fibrils in NFL-TBS40-63 formulation: amino acid added instead of alanine. The protocol: Several formulations (containing NFL-TBS40-63 and various buffers, solubilizing and osmolarity adjusting agents) were tested for their aptitude to pass a 0.2 μm filter. […] The ease of filtration (manual pressure required) was recorded.
For grade 1 formulations, further filtration tests were performed with higher volumes of the test formulation, and a deliberately small filter area size, e.g. a 25 mm diameter with pores of 0.2 μm with 100 ml of the test formulation.

The subject of series [2] is U-87 MG human GBM cells. The series is described as follows: Immunocytochemistry of tubulin. The class given is cell-based. Conditions: 100 μM, 48 hours. As to the method:
(§1) To visualize the treatment internalization, 20,000 and 35,000 cells per well for b.End3 murine endothelial cells and U-87 MG human GBM cells, respectively, were seeded in 24-well plates containing one coverslip previously coated with poly (d) lysine 0.1 mg/ml per well and washed three times with 1×DPBS (Sigma-Aldrich; Saint-Louis, USA) and incubated for 24 hours at 37° C. and 5% CO2. Then, the cells were incubated with 100 μM of GC01-G5% (NFL-TBS40-63 peptide (GC01) peptide partially solubilized with 5% glucose) or 100 μM of GC01.1 (NFL-TBS40-63 peptide (GC01) fully solubilized in the formulation of the invention F28C1), or with 1 μg/mL of colchicine for 48 hours at 37° C. At the end of the incubation time, cells were washed three times with 1×DPBS and fixed with 4% paraformaldehyde (15714-Delta microscopies; Mauressac, France) for 10 min at room temperature. Then, treated cells were permeabilized with 0.2% triton X-100 (T9284—Sigma-Aldrich; Saint-Louis, USA) for 10 min, and blocked with 5% bovine serum albumin (A7030—Sigma-Aldrich; Saint-Louis, USA) for 45 min at room temperature. Cells were co-incubated with a mouse anti-a tubulin (ab7750-Abcam; Paris, France) and a rabbit anti-βIII tubulin antibodies at 1:250 (T2200—Sigma-Aldrich; Saint-Louis, USA) overnight at 4° C. […]

Series [3] has as its system b.End3 murine endothelial cells. The series is described as follows: Immunocytochemistry of tubulin. It counts as cell-based. Particulars: 100 μM, 48 hours. As to the method:
as §1

The test system of series [4] is U-87 MG cells implanted in the brains of BALB/c Nude mice. The series is described as follows: In vivo U-87 MG brain tumor in nude mice, tolerance and MALDI-TOF imaging. Conditions: intravenous injection in the formulation of the invention, 1 hour after the final injection.
Method: Seven-week-old female Balb/c nude mice (Janvier, France) were housed at the university animal facility (Service Commun d'Animalerie Hospitalo-Universitaire—Université d'Angers, France). Animals had free access to water and food throughout the experiment and their behavior and body weight were constantly monitored. All procedures involving animals, were conducted in accordance with protocols approved by ethical committee of the University of Angers and the regional ethics committee on animal experimentations.
Mice were anesthetized by intraperitoneal injection of a mixture of ketamine 10% (80 mg/kg) and xylazine 2% (10 mg/kg). […] The injection coordinates were 2.1 mm lateral, 0.5 mm posterior from the bregma and 2.5 mm deep from the outer border of the cranium. […] Animals were sacrificed 1 hour after the last injection, and brains were removed and frozen in nitrogen vapors.
The MALDI-TOF MS analysis was performed on a Bruker BIFLEX III mass spectrometer (Bruker Daltonics; Germany) equipped with a nitrogen laser (337 nm wavelength, 3 ns laser pulse duration) with reflection and in the positive ion mode. The MS data were acquired over a mass range of m/z 2714 Da with pixels of 100 μm diameter but the capturing area is of 40 μm per pixel. Data have been normalized by Root Mean Square and the image has been smoothed by reducing background noise. […]
Series [5] is described as follows: Visual dissolution test / solubility of the peptide. It counts as physicochemical.
A short description of series [6]: Clarity test - degree of opalescence. The class given is physicochemical. The protocol:
For preparations where the NFL-TBS40-63 peptide appeared to be visually dissolved (following the visual dissolution test), the clarity (opalescence) of the preparation was assessed, via visual inspection after placing the colourless glass tube close to a white light source. The degree of opalescence was a very useful predictor of a given preparation's ability to pass or block a sterilizing filter.

Series [7] in a line: Scanning Electron Microscopy (SEM) of dry powder. The class given is physicochemical. Particulars: Lot AW18189D and Lot HF44004B. As to the method:
Scanning Electron Microscopy of NFL-TBS40-63 peptide dry powder was performed using an Jeol 6301F instrument. In brief, NFL-TBS40-63 peptide was lightly sprinkled onto double sided tape fixed to a SEM stub. Excess powder was shaken/tapped off, so as to leave a very thin layer of powder on the stub, which was then sputter coated with an ~10 nm layer of platinum, prior to observation. This technique allows visualization of the fibrils in the dry NFL-TBS40-63 peptide powder.

The nature of series [8]: Transmission Electron Microscopy (TEM) of fibrils. The class given is physicochemical. The protocol: Transmission Electron Microscopy imaging of various formulations was performed using a Jeol JEM-1400 instrument. Sample preparation was as follows: one drop of the liquid to be examined was deposited onto a TEM gird and allowed to settle for ~1 minute. Excess liquid was then absorbed with blotting paper, and one drop of a 2% solution of uranyl acetate was deposited on the grid. After ~2 minutes the excess solution was absorbed with blotting paper, and the grid was rinsed twice, using with a drop of water each time. The grid was then dried, prior to examination in the TEM. This technique allowed visualization of the fibrils of NFL-TBS40-63 peptide in the various formulations and in water.

Series [9] is described as follows: Dynamic Light Scattering (DLS). It counts as physicochemical. The protocol:
FIG. 4A-C: DLS graphs showing the effect of the heating of the formulation containing L-alanine at different temperatures before adding NFL-TBS40-63 peptide followed by mixing for 1 h30 at A. room temperature (RT); B. 30-35° C., and C. 40-45° C. […] Low attenuator values (e.g. ≤8) indicate that there were substantially more particles in the sample.
Dynamic Light Scattering (DLS) measurements were performed on the several formulations of grade 1 and 2 using a Malvern Nano-S instrument. Although the technique is not quantitative, it provided important information on the relative size of the objects (fibrils) present in the various formulations, throughout out the process of dissolution.
The attenuator value also gives a measure of the quantity of particles present: the higher the attenuator value, the less particles present.

Series [10] has as its system U-87 MG human GBM cells. The series can be described thus: MTS viability assay (mitochondrial activity). It counts as cell-based. Particulars: 72 hours, peptide in Clinic vehicle F28C1 compared with Glucose 5%. The protocol:
(§2) Cells were seeded in 96-well plates at 1,000 per well for b.End3 murine endothelial cells and F98 rat GBM cells, and 5,000 cells and U-87 MG human GBM cells, and incubated for 24 hours at 37° C. and 5% CO2. Then, the culture media was removed and cells were treated for 72 hours at 37° C. and 5% CO2 with increasing concentrations (25, 50, 100 and 200 μM) of GC01-G5% (NFL-TBS40-63 peptide (GC01) partially solubilized with 5% glucose) or GC01.1 (NFL-TBS40-63 peptide (GC01) fully solubilized in the formulation of the invention F28C1), or with 1 μg/mL of colchicine, or the 5% glucose solution and the Clinic vehicle, diluted in fresh media. Cell viability was measured using the MTS viability assay (ab197010-Abcam; Paris, France). After rinsing the cells with 1×DPBS (Dulbecco's Phosphate Buffered Saline-Gibco; Dardilly, France), 20 μL of MTS reagent was added to each well for 2 hours. The number of living cells is directly proportional to the absorbance measured by the amount of light absorbance at 490 nm in a SpectraMax M2 multi-scanning spectrophotometer (Molecular Devices; San Jose, California, USA).

Series [11] has as its system b.End3 murine endothelial cells. The series can be described thus: MTS viability assay (mitochondrial activity). It counts as cell-based. Particulars: 72 hours, peptide in Clinic vehicle F28C1 compared with Glucose 5%. As to the method: as §2
Series [12] has as its system neuroblastoma and glioblastoma cell lines. Particulars: WO 2011/073207 and Bocquet et al. (2009); cited from earlier work.
For a further series, the system named is U-87 MG cells. The series is described as follows: Calcein/PI flow cytometry after passage through the endothelial monolayer. It counts as cell-based, human. Conditions: Transwell conditions + U-87 MG cells, 24 h treatment + 48 hours. The protocol: After 24 hours of treatment, the endothelial cell monolayer was removed, and the U-87 MG cells were incubated at 37° C. for an additional 48 hours. At this time, U-87 MG cells were collected as previously described in section 1.4. To evaluate cell viability were stained with 1 μM of Calcein green (Thermo Fisher Scientific; Massachusetts, USA) for 30 min at room temperature in the dark. Then re-suspended in Propidium Iodide and analyzed by flow cytometry. 10,000 cells were measured for each experiment.

`CC[C@H](C)[C@H](N)C(=O)O` [L-isoleucine]: the “effect on the presence of fibrils in NFL-TBS40-63 formulation” value (“effect on the presence of fibrils” for short) in series [1] is reported as “did not have any positive effect”.

Consider `NC(=O)CC[C@H](N)C(=O)O` [L-glutamine], for which the “effect on the presence of fibrils” value in [1] is given as “did not have any positive effect”.

`CSCC[C@H](N)C(=O)O` [L-methionine]: the “effect on the presence of fibrils” value in series [1] was “did not have any positive effect”.

As to `CC(C)C[C@H](N)C(=O)O` [L-leucine], the “effect on the presence of fibrils” value in [1] was “did not have any positive effect”.

The term solubility denotes the dissolved amount per volume that the medium holds. Regarding `CC(C)C[C@H](NC(=O)[C@H](CO)NC(=O)[C@H](CO)NC(=O)[C@H](CO)NC(=O)[C@@H](NC(=O)[C@@H]1CCCN1C(=O)[C@H](C)NC(=O)[C@H](CO)NC(=O)[C@H](Cc1ccc(O)cc1)NC(=O)[C@H](CO)NC(=O)[C@H](CO)NC(=O)[C@H](Cc1ccc(O)cc1)NC(=O)CCCC[C@@H]1SC[C@@H]2NC(=O)N[C@@H]21)C(C)C)C(=O)N[C@@H](CO)C(=O)N[C@H](C(=O)N[C@@H](CCCNC(=N)N)C(=O)N[C@@H](CCCNC(=N)N)C(=O)N[C@@H](CO)C(=O)N[C@@H](Cc1ccc(O)cc1)C(=O)N[C@@H](CO)C(=O)N[C@@H](CO)C(=O)N[C@@H](CO)C(=O)N[C@@H](CO)C(=O)NCC(=O)N[C@@H](CO)C(N)=O)C(C)C` [NFL-TBS40-63 peptide] (Biotin-YSSYSAPVSSSLSVRRSYSSSSGS-NH2; N-terminus and C-terminus assumed), the “effect on tubulin (immunostaining)” value (in the series with U-87 MG human GBM cells [2]; in [3]) was “alteration of tubulin” each time. In series [4], the “peptide in the tumor by MALDI-TOF imaging” value is on record as “accumulation”. Besides, the “dissolution of the peptide” value in series [5] (3 mg/ml in G5% (5% glucose in water for injection), even after heating 1.5 h at 40 to 45° C.) is reported as “less well dissolved”. Moreover, the solubility at 2 min was less than 800 µg/mL in [5] (50 mM glutamine and 50 mM arginine, read-out: solubility); less than 2500 µg/mL in [5] (in water, read-out: intrinsic aqueous solubility). In addition, the precipitation result in [5] (in the presence of sodium or potassium ions) was “tends to irreversibly precipitate”. In addition, the “solubility in commonly used parenteral buffer systems” value in series [5] (nearly all commonly used parenteral buffer systems) is recorded as “insoluble”. The “opalescence of the solution” value is reported as “slightly opalescent” in series [6] (F28C1 with 25 mM L-alanine, 1.5 mg/mL peptide); “very slightly opalescent” in series [6] (F28C1 with 50 mM L-alanine, 1.5 mg/ml peptide); “slightly opalescent” in series [6] (F28C1 with 112 mM L-alanine, 1.5 mg/ml peptide); “slightly opalescent” in [6] (F28C1 with 225 mM L-alanine, 1.5 mg/ml peptide); “slightly opalescent” in series [6] (F28C1 with 670 mM L-alanine, 0.5 mg/mL peptide). Also, the “structures in dry powder by SEM” value in [7] is “fibril-like structures”. Besides, in series [8] (composition containing 50 mM of L-alanine and 1 mg/mL peptide), the “number and size of fibrils by TEM” value is “significantly reduced; also recorded: virtually no fibrils were visible”. Moreover, the “fibrillar structures by TEM” value in series [8] (in water, 1 mg/mL and 0.27 mg/ml) was “fibrillar structure; also recorded: fibril structure”. Besides, in series [8] (self-association), the “length of sub-visible fibrillar structures” value is reported as not above 2 μm. In addition, in [9] (micronized powder in F28C1, 1.5 hours mixing at ambient temperature (20° C.), prior to pre-filtration), the “DLS single peak, particle size” value is on record as “around 300 nm”. In [9] (solution F28C heated to 40-45° C. before adding the peptide, mixing 1h30), this compound returned a DLS attenuator value of 10. Besides, the “cytotoxicity profile (cell viability, MTS)” value (in the series with U-87 MG human GBM cells [10]; in series [11]) was “retains its properties” throughout. The “inhibition of proliferation in vitro” value in series [12] is on record as “able to inhibit the proliferation”. The “percentage of dead cells” value in the series on U-87 MG cells (listed as Biot-NFL) is 16.6±5.4%; in the series with U-87 MG cells (listed as GC01), 30.1±7.9%. Moreover, in series [1] (1 mg/ml in water), the “passage of 0.2 μm sterilizing filter” value is listed as “very quickly block”. Further, the “behaviour of pre-filter and sterilizing filters” value in series [1] (3 mg/ml in G5% (5% glucose in water for injection)) is reported as “tended to clog up quite quickly”. Also, the filter grade in series [1] (F28C1 with 25 mM L-alanine, 1.5 mg/mL peptide, 1 mL, 13 mm 0.2 μm filter) was 2; in series [1] (F28C1 with 50 mM L-alanine, 1.5 mg/ml peptide, 5 mL, 13 mm 0.2 μm filter), 1 to 2; in series [1] (F28C1 with 112 mM L-alanine, 1.5 mg/ml peptide, 1 mL, 13 mm 0.2 μm filter), 2; in series [1] (F28C1 with 225 mM L-alanine, 1.5 mg/ml peptide, 1 mL, 13 mm 0.2 μm filter), 2 to 3 and 3; in series [1] (F28C1 with 670 mM L-alanine, 0.5 mg/mL peptide, 13 mm 0.2 μm filter) it was 3; in series [1] (with no alanine), 3. Besides, the “sterilizing filtration through 0.2 μm” value in [1] (micronized powder in F28C1, after 0.45 μm pre-filtration) is “successful”.

Regarding `CC(C)[C@H](N)C(=O)O` [L-valine], the “effect on the presence of fibrils” value in series [1] is on record as “did not have any positive effect”.

The values are drawn from patent publication US20260240768A1, “PHARMACEUTICAL COMPOSITION COMPRISING NFL-TBS40-63 PEPTIDE, VARIANTS OR SALTS THEREOF AND ALANINE” (GLIOCURE, priority 2022, published 2026).
